Where two headings read alike, the source gives them in different places. Marks after values point to notes of the source that are not given here.
Experiments:
physchem = type: physicochemical; settings: pH 7.8
Protocol: The log P values were measured in accordance with EEC Directive 79/831 Annex V.A8 by HPLC (High Performance Liquid Chromatography) on reversed-phase columns (C 18) using the methods below: [c] The LC-MS determination in the neutral range was carried out at pH 7.8 using the mobile phases 0.001 molar aqueous ammonium bicarbonate solution and acetonitrile linear gradient from 10% acetonitrile to 95% acetonitrile.

[1] = type: physicochemical
Protocol: The log P values were measured in accordance with EEC Directive 79/831 Annex V.A8 by HPLC (High Performance Liquid Chromatography) on reversed-phase columns (C 18) using the methods below: […]

[2] = log P by LC-MS, method [b], acid range pH 2.7; type: physicochemical
Protocol: The log P values were measured in accordance with EEC Directive 79/831 Annex V.A8 by HPLC (High Performance Liquid Chromatography) on reversed-phase columns (C 18) using the methods below:
[b] The LC-MS determination in the acid range was carried out at pH 2.7 using the mobile phases 0.1% aqueous formic acid and acetonitrile (contains 0.1% formic acid)
linear gradient from 10% acetonitrile to 95% acetonitrile.

Fusarium proliferatum = assay: Production of Fumonisin FB1 by Fusarium proliferatum (microtitre plates; FB1 by HPLC-MS/MS, growth by OD620); type: cell-based; settings: for pI50 Fum: FB1 concentration in liquid medium after 6 days at 20° C., HPLC-MS/MS; for pI50 growth: OD620 at the beginning and after 6 days
[3] = log P by HPLC on reversed-phase columns (C 18), method [a], acidic range pH 2.3; type: physicochemical; settings: for chromatographic logP: pH 2.3, log P (pH 2.3)
Protocol: The log P values were measured in accordance with EEC Directive 79/831 Annex V.A8 by HPLC (High Performance Liquid Chromatography) on reversed-phase columns (C 18) using the methods below: [a] The determination was carried out in the acidic range at pH 2.3 using the mobile phases 0.1% aqueous phosphoric acid and acetronitrile linear gradient from 10% acetonitrile to 95% acetronitrile.

Sphaerotheca fuliginea = assay: Sphaerotheca test (cucumber)/protective; type: in vivo; settings: Podosphaera fuliginea, 168 h, active compound concentration of 500 ppm, protective, evaluation 7 days after the inoculation, read-out: efficacy

Row | Compound | log p ([2]; pH 2.7) | pI50 Fum (Fusarium proliferatum) | pI50 growth (Fusarium proliferatum) | further results
1 | COCC(C)Nc1nc(Nc2cccc(N3C(=O)CCC3=O)c2)ncc1Cl (stereo not drawn) [Example 202] | 1.26[b]; |  |  | log p (physchem): 2.13[c];; log p [1]: 1.02[d]
2 | CC1COC(=O)N1c1cccc(Nc2ncc(Cl)c(NCC(F)(F)F)n2)c1 (stereo not drawn) [Example 169] | 2.16[b] | 5.5 | 5.1 | 
3 | CC1CCC(=O)N1c1cccc(Nc2ncc(Br)c(NC3CCC3)n2)c1 (stereo not drawn) [Example 36] | 1.97[b] | 6.2 | 5.3 | 
4 | CN(c1nc(Nc2cccc(N3C(=O)CC(C)(C)C3=O)c2)ncc1Cl)C1CC1 [Example 177] | 2.55[b] | 6.1 | 5.7 | 
5 | CC1CCN(c2cccc(Nc3ncc(Br)c(NC4CCC4)n3)c2)C1=O (stereo not drawn) [Example 27] | 2.09[b] | 6.2 | 5.6 | log p ([3]; pH 2.3): 2.24[a];
6 | CCOC(=O)[C@@H]1CCC(=O)N1c1cccc(Nc2ncc(Cl)c(NC3CC3)n2)c1 [Example 190, Ethyl 1-(3-{[5-chloro-4-(cyclopropylamino)pyrimidin-2-yl]amino}phenyl)-5-oxo-L-prolinate] |  |  |  | chromatographic logP [3]: 1.69; pest or weed control at 500 ppm (Sphaerotheca fuliginea): ≥ 70%; chromatographic logP (physchem): 2.53; chromatographic logP ([2]; pH 2.7): 1.69
7 | CC1(C)CC(=O)N(c2cccc(Nc3ncc(Br)c(NC4CC4)n3)c2)C1=O [Example 28] | 1.99[b] | 6.2 |  | 
8 | CCC(C)Nc1nc(Nc2cccc(N3CCCC3=O)c2)ncc1Cl (stereo not drawn) [Example 8] |  | 4.6 | 4 | log p ([3]; pH 2.3): 1.84[a];; log p (physchem): 2.92[c]
9 | 1-(3-{[4-(Cyclopropylamino)-5-(trifluoromethyl)pyrimidin-2-yl]amino}phenyl)pyrrolidin-2-one [Example 236] |  |  | 4.9 | log P (pH 2.3) ([3]; pH 2.3): 1.49; log p ([2]; method [b], LC-MS, acid range pH 2.7): 1.49[b]
10 | O=C1OCCN1c1cccc(Nc2ncc(C(F)(F)F)c(NC3CCC3)n2)c1 [Example 194] | 2.58[b] | 6.1 | 5.4 | 
11 | CCC1CC(C)C(=O)N1c1cccc(Nc2ncc(Br)c(NC3CCC3)n2)c1 (stereo not drawn) [Example 211] | 2.63[b]; |  |  | log p [1]: 2.19[d]
12 | CC1(C)CC(=O)N(c2cccc(Nc3ncc(Cl)c(NC4CC4)n3)c2)C1=O [Example 25] |  | 6.3 | 5.6 | log p ([3]; pH 2.3): 1.83[a]
13 | CC(C)Nc1nc(Nc2cccc(N3CCOC3=O)c2)ncc1Cl [Example 138] | 1.56[b] | 5 | 4.9 | 
14 | COC(=O)C1CC(=O)N(c2cccc(Nc3ncc(Cl)c(NC4CC4)n3)c2)C1 (stereo not drawn) [Example 137] | 1.52[b] | 5.7 | 5.1 | 
15 | CC(C)Nc1nc(Nc2cccc(N3C(=O)C(C)CC3C)c2)ncc1Cl (stereo not drawn) [Example 141] | 1.88[b] | 5.3 | 5 | log p (physchem): 3.15[c];
16 | CC1CC1Nc1nc(Nc2cccc(N3CCCC3=O)c2)ncc1C(F)(F)F (stereo not drawn) [Example 219] | 2.79[b] | 6.3 | 5.5 | 
17 | CC1CC(C)N(c2cccc(Nc3ncc(Br)c(NC4CC4)n3)c2)C1=O (stereo not drawn) [Example 84] | 2.01[b] | 6.3 |  | log p (physchem): 2.91[c];
18 | CC1(C)CC(=O)N(c2cccc(Nc3ncc(Br)c(NC4CCC4)n3)c2)C1=O [Example 63] |  | 6.6 | 5.7 | log p ([3]; pH 2.3): 2.19[a]
19 | CC(C)[C@H]1COC(=O)N1c1cccc(Nc2ncc(Cl)c(NC3CC3)n2)c1 [Example 76] | 2.47[b] | 6.2 | 5.6 | 
20 | CC(C)Nc1nc(Nc2cccc(N3C(=O)CC(C)(C)C3=O)c2)ncc1Cl [Example 140] | 1.81[b] | 5.7 | 5.2 | 
21 | CCC1CC(C)C(=O)N1c1cccc(Nc2ncc(Cl)c(NC3CC3)n2)c1 (stereo not drawn) [Example 206, 1-(3-{[5-Chloro-4-(cyclopropylamino)pyrimidin-2-yl]amino}phenyl)-5-ethyl-3-methylpyrrolidin-2-one] |  |  |  | chromatographic logP [3]: 2.19; pest or weed control at 500 ppm (Sphaerotheca fuliginea): ≥ 70%; chromatographic logP (physchem): 3.15; chromatographic logP ([2]; pH 2.7): 2.19

— US20110245242A1, “Heterocyclically Substituted Anilinopyrimides” (Bayer CropScience AG, priority 2008, published 2011)
